According to patent publication US8415469B2, “Compounds and methods for kinase modulation, and indications therefor” (Plexxikon Inc., priority 2005, dated 2013):

How the values were obtained:
Assay type in all cases: biochemical
Kit = molecular target: T1, Kit (Homo sapiens, UniProt P10721); assay: AlphaScreen kinase assay, Kit; details: read-out: IC50, activity toward kinase Kit
T1 construct: P1332.N6 BI PTP KIT M552-K948-X COD; His6 (N); made in house; host or cells: E. coli (PTP1B co-expressed)

Btk = molecular target: T2, Btk (Homo sapiens, UniProt Q06187); assay: Z'-Lyte FRET kinase assay (Invitrogen), Btk; details: read-out: IC50, activity toward kinase Btk
T2 construct: purchased Invitrogen (assay run by Invitrogen)

FGFR1 = molecular target: T3, FGFR1 (Homo sapiens, UniProt P11362, C488A/C584S); assay: AlphaScreen kinase assay, FGFR1; details: read-out: IC50, activity toward kinase FGFR
T3 construct: P1351.pET N6 BI-PTP FGFR A458-E765-X C488A, C584S; made in house; host or cells: E. coli (PTP1B co-expressed)
Text: (§1) AlphaScreen assay was used to screen additional kinases. The assay is similarly dependent on the phosphorylation of a peptide substrate. In this assay, an antibody that recognizes phosphorylated substrate is bound to an acceptor bead. The peptide substrate is attached to biotin, which binds to a donor head that contains streptavidin. Thus phosphorylated substrate is bound by antibody and streptavidin, bringing the donor and acceptor heads into close proximity when kinase is not inhibited. The donor produces singlet oxygen which results in emission from the acceptor when they are in close proximity. Conversely, when kinase is inhibited, the donor and acceptor beads are not associated and the emission from the acceptor is reduced.
(§2) AlphaScreen assays were done using compounds dissolved in DMSO to a concentration of 20 mM. The compounds were diluted accordingly to the desired final concentrations in each sample well, using 1:3 serial dilution for a total of 8 concentration points. Plates were prepared such that each kinase reaction is 20 μl in 1× kinase buffer, 5% DMSO and 10 μM ATP. After incubation of the kinase reaction for 1 hour at room temperature, 5 μl of donor beads in stop buffer (50 mM EDTA in 1× kinase buffer) was added, the sample was mixed and incubated for 20 minutes at room temperature before adding 5 μl of acceptor beads in stop buffer. The samples were incubated for 60 minutes at room temperature and the signal per well was read on AlphaQuest reader.

B-Raf V600E = molecular target: T4, B-Raf V600E (Homo sapiens, UniProt P15056, V600E); assay: AlphaScreen kinase assay, B-Raf V600E; details: read-out: IC50, activity toward kinase B-Raf V600E
T4 construct: P4254. pFastBacBD-CDC37 BRAF D437-K722-X, V600E; His6 with pFastBac HT leader (TEV site) (N); made in house; host or cells: Sf9 (baculovirus; chaperone CDC37 co-expressed)

Fak = molecular target: T5, Fak (Homo sapiens, UniProt Q05397); assay: AlphaScreen kinase assay, Fak; details: read-out: IC50, activity toward kinase Fak
T5 construct: P1358.pFastBacHtb FAK S411-Q686-X; His6 with pFastBacHTb leader (TEV site) (N); made in house; host or cells: Sf9 (baculovirus)

Fms = molecular target: T6, Fms (Homo sapiens, UniProt P07333); assay: AlphaScreen kinase assay, Fms; details: read-out: IC50, activity toward kinase Fms
T6 construct: purchased Upstate Biotechnology

B-Raf = molecular target: T7, B-Raf (Homo sapiens, UniProt P15056); assay: AlphaScreen kinase assay, B-Raf; details: read-out: IC50, activity toward kinase B-Raf
T7 construct: purchased Upstate Biotechnology

Src = molecular target: T8, Src (Homo sapiens, UniProt P12931); assay: AlphaScreen kinase assay, Src; details: read-out: IC50, activity toward kinase Src
T8 construct: P1144. pET-N6 BI-PTP SRC V86-L536-X; made in house

Jnk3 = molecular target: T9, Jnk3 (Homo sapiens, UniProt P53779); assay: AlphaScreen kinase assay, Jnk3; details: read-out: IC50, activity toward kinase Jnk3
T9 construct: purchased Upstate Biotechnology
Text: as §1, §2

Flt1 = molecular target: T10, Flt1 (Homo sapiens, UniProt P17948); assay: AlphaScreen kinase assay, Flt1; details: read-out: IC50, activity toward kinase Flt1
T10 construct: P1826.pETN6 BI-PTP FLT1 M799-D1165-X WT; His6 (N); made in house; host or cells: E. coli (PTP1B co-expressed)
T10 sequence (P17948 with tags, fused parts or gaps): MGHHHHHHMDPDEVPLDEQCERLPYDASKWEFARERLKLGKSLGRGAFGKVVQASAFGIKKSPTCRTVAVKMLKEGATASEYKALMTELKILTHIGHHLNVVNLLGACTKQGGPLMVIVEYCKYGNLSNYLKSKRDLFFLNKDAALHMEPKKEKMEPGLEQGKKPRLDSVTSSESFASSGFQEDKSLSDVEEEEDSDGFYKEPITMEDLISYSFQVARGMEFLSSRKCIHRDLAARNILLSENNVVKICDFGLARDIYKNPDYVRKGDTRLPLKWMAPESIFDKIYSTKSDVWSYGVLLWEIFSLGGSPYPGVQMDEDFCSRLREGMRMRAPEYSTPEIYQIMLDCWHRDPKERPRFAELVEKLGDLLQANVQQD

c-Raf-1 = molecular target: T11, c-Raf-1 (Homo sapiens, UniProt P04049); assay: AlphaScreen kinase assay, c-Raf-1; details: read-out: IC50, activity toward kinase c-Raf-1
T11 construct: purchased Upstate Biotechnology

Jnk1 = molecular target: T12, Jnk1 (Homo sapiens, UniProt P45983); assay: AlphaScreen kinase assay, Jnk1; details: read-out: IC50, activity toward kinase Jnk1
T12 construct: purchased Upstate Biotechnology

Ret = molecular target: T13, Ret (Homo sapiens, UniProt P07949); assay: AlphaScreen kinase assay, Ret; details: read-out: IC50, activity toward kinase Ret
T13 construct: P1378.pET-SF BI-PTP RET H661-R1012 HIS; made in house
T13 sequence (P07949 with tags, fused parts or gaps): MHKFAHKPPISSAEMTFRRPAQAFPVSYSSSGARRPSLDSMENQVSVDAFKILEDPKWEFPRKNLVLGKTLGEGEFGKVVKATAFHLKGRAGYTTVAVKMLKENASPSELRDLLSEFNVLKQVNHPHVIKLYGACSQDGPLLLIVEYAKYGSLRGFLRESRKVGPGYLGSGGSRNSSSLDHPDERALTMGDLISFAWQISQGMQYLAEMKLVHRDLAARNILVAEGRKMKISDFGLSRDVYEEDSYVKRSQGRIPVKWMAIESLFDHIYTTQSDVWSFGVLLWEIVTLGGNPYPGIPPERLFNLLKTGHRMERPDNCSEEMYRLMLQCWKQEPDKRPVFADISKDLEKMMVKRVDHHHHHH

Kdr = molecular target: T14, Kdr (Homo sapiens, UniProt P35968); assay: Z'-Lyte FRET kinase assay (Invitrogen), Kdr; details: read-out: IC50, activity toward kinase Kdr
T14 construct: purchased Invitrogen (assay run by Invitrogen)

Stk6 = molecular target: T15, Stk6 (Homo sapiens, UniProt O14965); assay: Z'-Lyte FRET kinase assay (Invitrogen), Stk6; details: read-out: IC50, activity toward kinase Stk6
T15 construct: purchased Invitrogen (Carlsbad, Calif.), screening service
T15 sequence (O14965 1-403): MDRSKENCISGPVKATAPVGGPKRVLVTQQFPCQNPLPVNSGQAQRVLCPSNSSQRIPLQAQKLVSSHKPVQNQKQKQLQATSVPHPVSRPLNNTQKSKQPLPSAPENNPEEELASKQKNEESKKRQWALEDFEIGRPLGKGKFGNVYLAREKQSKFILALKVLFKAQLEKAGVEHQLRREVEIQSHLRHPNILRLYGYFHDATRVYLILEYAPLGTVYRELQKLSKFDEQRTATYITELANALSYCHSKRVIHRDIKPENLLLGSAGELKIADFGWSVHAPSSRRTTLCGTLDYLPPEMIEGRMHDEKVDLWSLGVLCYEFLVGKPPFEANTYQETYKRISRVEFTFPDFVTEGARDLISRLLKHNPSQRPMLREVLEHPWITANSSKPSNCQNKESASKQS

Measured: IC50

T1 sequence (P10721 with tags, fused parts or gaps): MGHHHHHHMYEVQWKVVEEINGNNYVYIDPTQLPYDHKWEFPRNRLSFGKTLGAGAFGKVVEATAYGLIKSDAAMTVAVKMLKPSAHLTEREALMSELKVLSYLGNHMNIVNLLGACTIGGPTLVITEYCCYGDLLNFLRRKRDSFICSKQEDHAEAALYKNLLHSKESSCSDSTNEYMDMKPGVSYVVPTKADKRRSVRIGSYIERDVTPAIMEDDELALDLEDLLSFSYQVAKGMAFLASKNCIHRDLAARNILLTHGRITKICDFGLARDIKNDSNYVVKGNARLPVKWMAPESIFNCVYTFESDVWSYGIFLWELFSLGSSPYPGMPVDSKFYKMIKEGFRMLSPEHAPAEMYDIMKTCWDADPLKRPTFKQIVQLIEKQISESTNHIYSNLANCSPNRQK
T12 sequence (P45983 whole entry): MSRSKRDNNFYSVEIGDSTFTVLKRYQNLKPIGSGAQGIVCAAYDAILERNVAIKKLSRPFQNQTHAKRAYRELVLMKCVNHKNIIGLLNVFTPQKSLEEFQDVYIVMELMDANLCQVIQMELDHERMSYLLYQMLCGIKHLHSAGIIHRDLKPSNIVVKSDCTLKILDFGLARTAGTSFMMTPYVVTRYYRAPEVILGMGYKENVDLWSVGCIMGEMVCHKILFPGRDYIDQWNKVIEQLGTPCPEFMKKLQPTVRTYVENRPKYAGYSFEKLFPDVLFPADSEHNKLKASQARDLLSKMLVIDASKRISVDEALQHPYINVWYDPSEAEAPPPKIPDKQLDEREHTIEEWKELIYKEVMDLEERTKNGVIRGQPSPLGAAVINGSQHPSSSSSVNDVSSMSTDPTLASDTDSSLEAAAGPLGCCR
T2 sequence (Q06187 whole entry): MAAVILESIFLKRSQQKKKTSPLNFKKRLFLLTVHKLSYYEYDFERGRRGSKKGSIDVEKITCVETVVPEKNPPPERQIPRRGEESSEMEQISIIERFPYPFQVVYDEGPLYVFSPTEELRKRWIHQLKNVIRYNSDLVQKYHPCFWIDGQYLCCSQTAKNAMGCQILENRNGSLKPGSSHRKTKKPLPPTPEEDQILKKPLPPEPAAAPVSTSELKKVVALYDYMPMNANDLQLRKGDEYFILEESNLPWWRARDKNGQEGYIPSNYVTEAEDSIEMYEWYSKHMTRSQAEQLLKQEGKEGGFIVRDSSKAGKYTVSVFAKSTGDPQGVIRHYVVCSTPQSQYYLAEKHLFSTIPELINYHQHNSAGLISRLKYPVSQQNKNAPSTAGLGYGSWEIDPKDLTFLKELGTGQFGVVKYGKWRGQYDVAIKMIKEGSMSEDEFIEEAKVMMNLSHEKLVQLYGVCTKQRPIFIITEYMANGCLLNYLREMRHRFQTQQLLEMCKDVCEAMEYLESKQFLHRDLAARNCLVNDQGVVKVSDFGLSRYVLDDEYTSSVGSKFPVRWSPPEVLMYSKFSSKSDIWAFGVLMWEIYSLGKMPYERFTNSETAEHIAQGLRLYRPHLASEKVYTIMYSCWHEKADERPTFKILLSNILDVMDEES
T4 sequence (P15056 with tags, fused parts or gaps V600E): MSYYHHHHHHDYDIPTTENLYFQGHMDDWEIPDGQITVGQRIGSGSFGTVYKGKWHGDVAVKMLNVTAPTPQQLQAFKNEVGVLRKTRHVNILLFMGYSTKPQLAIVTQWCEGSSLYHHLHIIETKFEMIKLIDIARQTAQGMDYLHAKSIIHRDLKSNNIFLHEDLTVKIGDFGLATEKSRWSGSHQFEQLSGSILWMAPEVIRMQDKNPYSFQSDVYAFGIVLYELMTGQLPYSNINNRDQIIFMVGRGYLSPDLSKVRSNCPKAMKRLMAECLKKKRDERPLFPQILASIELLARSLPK
T7 sequence (P15056 whole entry): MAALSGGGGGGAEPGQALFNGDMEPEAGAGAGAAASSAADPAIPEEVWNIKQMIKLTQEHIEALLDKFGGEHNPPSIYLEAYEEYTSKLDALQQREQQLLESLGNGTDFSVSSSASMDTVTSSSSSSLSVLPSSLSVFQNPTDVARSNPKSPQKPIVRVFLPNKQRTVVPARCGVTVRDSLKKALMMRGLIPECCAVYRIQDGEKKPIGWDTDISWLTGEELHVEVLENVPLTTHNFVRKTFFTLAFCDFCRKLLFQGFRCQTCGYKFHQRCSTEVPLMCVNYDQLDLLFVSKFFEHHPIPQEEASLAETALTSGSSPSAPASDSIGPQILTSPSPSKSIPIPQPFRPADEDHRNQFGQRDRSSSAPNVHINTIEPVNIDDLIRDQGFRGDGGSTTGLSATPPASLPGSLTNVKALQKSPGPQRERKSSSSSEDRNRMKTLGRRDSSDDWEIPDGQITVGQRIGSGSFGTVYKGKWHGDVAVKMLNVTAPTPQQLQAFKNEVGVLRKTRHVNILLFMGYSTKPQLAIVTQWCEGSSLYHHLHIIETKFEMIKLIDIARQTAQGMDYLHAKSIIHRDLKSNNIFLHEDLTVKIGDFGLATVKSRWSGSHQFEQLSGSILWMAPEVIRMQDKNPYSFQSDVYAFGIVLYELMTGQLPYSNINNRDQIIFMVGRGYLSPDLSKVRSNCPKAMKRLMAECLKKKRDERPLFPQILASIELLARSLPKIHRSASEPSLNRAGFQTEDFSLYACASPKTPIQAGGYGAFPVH
T3 sequence (P11362 458-765 C488A/C584S): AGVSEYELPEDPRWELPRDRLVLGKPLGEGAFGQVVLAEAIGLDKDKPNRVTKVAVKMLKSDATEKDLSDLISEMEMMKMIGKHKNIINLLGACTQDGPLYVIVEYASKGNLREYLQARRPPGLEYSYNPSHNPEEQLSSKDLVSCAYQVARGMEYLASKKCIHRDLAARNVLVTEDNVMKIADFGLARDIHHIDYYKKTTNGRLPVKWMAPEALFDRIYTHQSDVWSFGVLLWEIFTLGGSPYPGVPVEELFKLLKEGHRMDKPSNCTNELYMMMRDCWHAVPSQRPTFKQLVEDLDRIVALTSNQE
T6 sequence (P07333 20-972): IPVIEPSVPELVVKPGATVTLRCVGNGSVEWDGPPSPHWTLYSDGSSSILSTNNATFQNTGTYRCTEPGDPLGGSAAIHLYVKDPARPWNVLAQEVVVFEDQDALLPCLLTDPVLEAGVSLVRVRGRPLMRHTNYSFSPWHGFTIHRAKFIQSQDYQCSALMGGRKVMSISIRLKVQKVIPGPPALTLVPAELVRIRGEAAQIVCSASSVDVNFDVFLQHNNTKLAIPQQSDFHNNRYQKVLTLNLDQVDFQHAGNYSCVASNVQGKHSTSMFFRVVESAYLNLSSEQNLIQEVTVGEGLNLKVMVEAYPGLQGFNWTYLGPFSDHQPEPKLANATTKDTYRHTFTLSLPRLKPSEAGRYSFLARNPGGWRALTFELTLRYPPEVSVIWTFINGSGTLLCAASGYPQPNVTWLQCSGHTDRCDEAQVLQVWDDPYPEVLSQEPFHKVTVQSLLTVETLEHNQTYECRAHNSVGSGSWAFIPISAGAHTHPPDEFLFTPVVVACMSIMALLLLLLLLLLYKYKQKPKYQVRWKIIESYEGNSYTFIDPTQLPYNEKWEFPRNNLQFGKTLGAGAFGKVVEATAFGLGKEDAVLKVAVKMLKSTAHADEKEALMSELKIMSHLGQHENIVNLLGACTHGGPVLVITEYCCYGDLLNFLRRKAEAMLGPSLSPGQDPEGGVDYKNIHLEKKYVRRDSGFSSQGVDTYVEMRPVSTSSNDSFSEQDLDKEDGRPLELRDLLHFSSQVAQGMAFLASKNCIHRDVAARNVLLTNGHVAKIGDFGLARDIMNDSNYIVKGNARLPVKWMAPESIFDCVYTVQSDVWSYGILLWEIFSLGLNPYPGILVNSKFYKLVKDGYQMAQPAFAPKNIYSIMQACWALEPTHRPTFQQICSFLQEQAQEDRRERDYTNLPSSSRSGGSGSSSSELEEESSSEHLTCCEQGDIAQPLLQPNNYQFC
T9 sequence (P53779 whole entry): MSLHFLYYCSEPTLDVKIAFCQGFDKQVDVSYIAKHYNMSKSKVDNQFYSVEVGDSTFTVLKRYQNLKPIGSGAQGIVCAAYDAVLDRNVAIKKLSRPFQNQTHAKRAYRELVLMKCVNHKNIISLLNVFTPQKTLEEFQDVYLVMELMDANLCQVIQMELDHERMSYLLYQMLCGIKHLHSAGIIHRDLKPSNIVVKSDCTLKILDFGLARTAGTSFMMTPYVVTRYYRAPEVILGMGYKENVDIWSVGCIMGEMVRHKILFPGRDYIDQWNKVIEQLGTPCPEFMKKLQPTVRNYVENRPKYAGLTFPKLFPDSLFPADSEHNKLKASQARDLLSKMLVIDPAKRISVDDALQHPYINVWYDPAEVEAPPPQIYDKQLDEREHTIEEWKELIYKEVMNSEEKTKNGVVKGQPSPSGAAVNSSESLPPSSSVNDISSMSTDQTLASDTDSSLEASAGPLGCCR
T11 sequence (P04049 whole entry): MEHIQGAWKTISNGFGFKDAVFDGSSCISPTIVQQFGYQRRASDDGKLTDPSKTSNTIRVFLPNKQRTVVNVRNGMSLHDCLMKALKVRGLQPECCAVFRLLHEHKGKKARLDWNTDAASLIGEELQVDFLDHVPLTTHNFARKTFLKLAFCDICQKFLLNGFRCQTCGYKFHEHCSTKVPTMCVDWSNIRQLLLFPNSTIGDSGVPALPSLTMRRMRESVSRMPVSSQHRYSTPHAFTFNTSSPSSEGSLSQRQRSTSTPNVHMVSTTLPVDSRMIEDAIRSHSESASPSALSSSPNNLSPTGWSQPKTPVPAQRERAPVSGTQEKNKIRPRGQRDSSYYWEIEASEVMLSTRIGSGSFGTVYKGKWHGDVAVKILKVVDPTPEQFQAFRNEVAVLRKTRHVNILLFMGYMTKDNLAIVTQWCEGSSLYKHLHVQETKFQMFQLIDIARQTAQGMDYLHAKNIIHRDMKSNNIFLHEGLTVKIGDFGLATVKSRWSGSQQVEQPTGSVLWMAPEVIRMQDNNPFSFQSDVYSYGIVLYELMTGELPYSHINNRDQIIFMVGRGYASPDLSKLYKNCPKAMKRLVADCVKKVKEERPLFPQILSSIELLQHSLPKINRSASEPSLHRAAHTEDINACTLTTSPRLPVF

Cc1ccccc1C(=O)c1c[nH]c2ncc(Br)cc12 [Compound P-0217]
≤ 10 µM: Kit | Btk | FGFR1

Fc1cccc(F)c1Cc1c[nH]c2ncc(-c3cccnc3)cc12 [Compound P-1477, 3-(2,6-Difluoro-benzyl)-5-pyridin-3-yl-1H-pyrrolo[2,3-b]pyridine]
≤ 10 µM: B-Raf V600E | Fak | Fms | B-Raf | Src | Jnk3 | FGFR1

CCCS(=O)(=O)Nc1ccc(F)c(C(=O)c2c[nH]c3ncc(Br)cc23)c1 [Compound P-1403, Propane-1-sulfonic acid [3-(5-bromo-1H-pyrrolo[2,3-b]pyridine-3-carbonyl)-4-fluoro-phenyl]-amide]
≤ 10 µM: Kit | B-Raf V600E | Fak | Fms | Flt1 | Src | c-Raf-1 | FGFR1

CCCS(=O)(=O)Nc1cccc(C(=O)c2c[nH]c3ncc(OC)cc23)c1F [Compound P-1256, Propane-1-sulfonic acid [2-fluoro-3-(5-methoxy-1H-pyrrolo[2,3-b]pyridine-3-carbonyl)-phenyl]-amide]
not listed: Btk | Fms | Jnk3 | Ret | Kdr | Stk6
≤ 10 µM: all other assays above

NC(=O)c1cccc(-c2cnc3[nH]cc(C(=O)c4ccccc4O)c3c2)c1 [Compound P-1384]
not listed: Btk | Flt1 | c-Raf-1 | Ret | Kdr | Stk6
≤ 10 µM: all other assays above

CC(=O)Nc1cccc(-c2ccnc3[nH]cc(C(=O)c4ccccc4C)c23)c1 [Compound P-0314]
≤ 10 µM: Btk | Ret

CC(=O)Nc1cccc(-c2ccnc3[nH]cc(C(=O)c4cc(F)ccc4F)c23)c1 [Compound P-0280]
≤ 10 µM: Btk | Ret

CCCS(=O)(=O)Nc1ccc(F)c(C(=O)c2c[nH]c3ncc(OC)cc23)c1 [Compound P-1433]
not listed: Btk | Jnk3 | Ret | Kdr | Stk6
≤ 10 µM: all other assays above

O=C(c1cccc(NS(=O)(=O)c2ccccc2)c1F)c1c[nH]c2ncc(Cl)cc12 [Compound P-1255, N-[3-(5-chloro-1H-pyrrolo[2,3-b]pyridine-3-carbonyl)-2-fluoro-phenyl]benzenesulfonamide]
not listed: Btk | Jnk3 | Jnk1 | Ret | Kdr | Stk6
≤ 10 µM: all other assays above

O=C(c1ccc(Cl)cc1)c1c[nH]c2ncc(-c3ccsc3)cc12 [Compound P-0321]
≤ 10 µM: Kit | Btk | Kdr | FGFR1 | Ret

COc1ccc(F)c(C(=O)c2c[nH]c3ncc(-c4ccccc4)cc23)c1 [Compound P-0351]
≤ 10 µM: Btk | B-Raf V600E | Fms | B-Raf | FGFR1 | Ret

NC(=O)c1ccc(-c2cnc3[nH]cc(Cc4ccccc4F)c3c2)cc1 [Compound P-1348]
≤ 10 µM: Kit | B-Raf V600E | Fak | Jnk1 | B-Raf | Src | Jnk3 | FGFR1

CC(=O)Nc1cccc(-c2cnc3[nH]cc(Cc4ccccc4F)c3c2)c1 [Compound P-1347]
≤ 10 µM: Kit | B-Raf V600E | Fak | Jnk1 | B-Raf | Src | Jnk3 | FGFR1

O=C(Nc1cccc(Cc2c[nH]c3ncc(-c4cccnc4)cc23)c1)NC1CCCC1 [Compound P-1446, 1-Cyclopentyl-3-[3-(5-pyridin-3-yl-1H-pyrrolo[2,3-b]pyridin-3-ylmethyl)-phenyl]-urea]
≤ 10 µM: Kit | B-Raf V600E | Fak | Jnk1 | Flt1 | B-Raf | Src | FGFR1

O=Cc1ccsc1-c1ccnc2[nH]ccc12 [Compound P-0276]
≤ 10 µM: Fak | Stk6

CCCCS(=O)(=O)Nc1cccc(C(=O)c2c[nH]c3ncc(Cl)cc23)c1F [Compound P-1250, Butane-1-sulfonic acid [3-(5-chloro-1H-pyrrolo[2,3-b]pyridine-3-carbonyl)-2-fluoro-phenyl]-amide]
not listed: Btk | Jnk3 | Jnk1 | Ret | Kdr | Stk6
≤ 10 µM: all other assays above

CCCS(=O)(=O)Nc1ccc(F)c(Cc2c[nH]c3ncc(-c4cccnc4)cc23)c1F [Compound P-1397]
≤ 10 µM: Kit | B-Raf V600E | Fak | Fms | B-Raf | Src | c-Raf-1 | FGFR1

COc1cc(OC)cc(C(=O)c2c[nH]c3ncc(-c4cccc(NC(C)=O)c4)cc23)c1 [Compound P-1420, N-{3-[3-(3,5-Dimethoxy-benzoyl)-1H-pyrrolo[2,3-b]pyridin-5-yl]-phenyl}-acetamide]
≤ 10 µM: Kit | Btk | B-Raf V600E | Fms | Flt1 | B-Raf | FGFR1

Cc1ccc(F)cc1C(=O)c1c[nH]c2ncc(-c3ccc(Cl)cc3)cc12 [Compound P-0304]
≤ 10 µM: Kit | Btk | FGFR1 | Ret
